# Measured values taken from patent publication US20250388565A1, “ESTROGEN RECEPTOR ALPHA DEGRADERS AND METHODS OF USE THEREOF” (Relay Therapeutics, Inc., priority 2022, published 2025).
# Target: T1, ERα protein (HiBiT-tagged) in ESR1_HiBiT KI MCF7 cells (Homo sapiens, UniProt P03372)
# T1 sequence (P03372 1-595): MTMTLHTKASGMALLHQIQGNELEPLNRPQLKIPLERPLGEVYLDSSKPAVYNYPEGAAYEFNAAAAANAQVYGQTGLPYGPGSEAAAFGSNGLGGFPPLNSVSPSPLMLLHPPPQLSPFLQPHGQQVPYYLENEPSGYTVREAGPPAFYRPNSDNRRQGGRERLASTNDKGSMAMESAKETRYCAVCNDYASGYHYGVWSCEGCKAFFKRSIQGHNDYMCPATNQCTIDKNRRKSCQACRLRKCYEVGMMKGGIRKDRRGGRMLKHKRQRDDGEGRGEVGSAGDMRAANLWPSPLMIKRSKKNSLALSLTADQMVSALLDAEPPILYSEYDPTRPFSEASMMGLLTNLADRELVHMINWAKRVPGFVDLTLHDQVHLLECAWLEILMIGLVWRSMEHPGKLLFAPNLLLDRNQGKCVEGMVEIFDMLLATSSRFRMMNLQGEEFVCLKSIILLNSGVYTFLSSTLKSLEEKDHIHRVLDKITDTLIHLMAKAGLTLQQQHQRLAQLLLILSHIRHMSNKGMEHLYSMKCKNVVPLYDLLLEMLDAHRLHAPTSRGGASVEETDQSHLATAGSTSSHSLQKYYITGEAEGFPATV
# Assay: Nano Glo HiBiT Lytic Degradation Assay
# Type: cell-based
# Details: 6 hours with compound, 14-point dose response 1:3, bell-shape curve fit, half-maximal effect of first Hill model, read-out: MCF7 ESR1 HiBiT - (DC50)
# How it was run: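 ESR1_HiBiT knock-in MCF7 cells were seeded 24 h before treatment, then exposed to compounds for 6 h at 37° C (14-point 1:3 curves, 10 mM top stock, 0.1% DMSO final, duplicates). HiBiT-ERα was read by lytic LgBiT luminescence, background-subtracted and normalized to DMSO. DC50 was taken from the half-maximal point of the first Hill component of a bell-shaped fit.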
row,SMILES,DC50
1,"Cn1nc(C2CCC(=O)NC2=O)c2cccc(N3CCN(CC4CCN(c5ccc([C@@H]6c7ccc(O)cc7CC[C@@H]6c6ccccc6)cc5)CC4)CC3)c21 (stereo partly drawn) [Compound I-189, 3-(7-(4-((1-(4-((1R,2S)-6-hydroxy-2-phenyl-1,2,3,4-tetrahydronaphthalen-1-yl)phenyl)piperidin-4-yl)methyl)piperazin-1-yl)-1-methyl-1H-indazol-3-yl)piperidine-2,6-dione]",2 nM
2,"Cn1c(=O)n(C2CCC(=O)NC2=O)c2cccc(N3CCN(CC4CCN(c5ccc([C@@H]6c7ccc(O)cc7CC[C@@H]6c6ccccc6)cc5)CC4)CC3)c21 (stereo partly drawn) [Compound I-191, 3-(4-(4-((1-(4-((1R,2S)-6-hydroxy-2-phenyl-1,2,3,4-tetrahydronaphthalen-1-yl)phenyl)piperidin-4-yl)methyl)piperazin-1-yl)-3-methyl-2-oxo-2,3-dihydro-1H-benzo[d]imidazol-1-yl)piperidine-2,6-dione]",1.09 nM
3,"O=C1CC[C@H](N2Cc3cc(N4CCN(CC5CCN(c6ccc([C@@H]7c8ccc(O)cc8C(F)(F)C[C@@H]7c7ccc(F)cc7)cc6)CC5)CC4)ccc3C2=O)C(=O)N1 [Compound I-192, (S)-3-(5-(4-((1-(4-((1R,2S)-4,4-difluoro-2-(4-fluorophenyl)-6-hydroxy-1,2,3,4-tetrahydronaphthalen-1-yl)phenyl)piperidin-4-yl)methyl)piperazin-1-yl)-1-oxoisoindolin-2-yl)piperidine-2,6-dione]",0.62 nM
4,"O=C1CC[C@H](N2Cc3cc(N4CCN(CC5CCN(c6ccc([C@@H]7c8ccc(O)cc8C(F)(F)C[C@@H]7c7ccccc7)cc6F)CC5)CC4)ccc3C2=O)C(=O)N1 [Compound I-194, (S)-3-(5-(4-((1-(4-((1R,2S)-4,4-difluoro-6-hydroxy-2-phenyl-1,2,3,4-tetrahydronaphthalen-1-yl)-2-fluorophenyl)piperidin-4-yl)methyl)piperazin-1-yl)-1-oxoisoindolin-2-yl)piperidine-2,6-dione]",0.41 nM
5,"CC(C)C[C@H]1CC(F)(F)c2cc(O)ccc2[C@H]1c1ccc(N2CCC(CN3CCN(c4ccc5c(c4)CN([C@H]4CCC(=O)NC4=O)C5=O)CC3)CC2)cc1 [Compound I-197, (S)-3-(5-(4-((1-(4-((1R,2S)-4,4-difluoro-6-hydroxy-2-isobutyl-1,2,3,4-tetrahydronaphthalen-1-yl)phenyl)piperidin-4-yl)methyl)piperazin-1-yl)-1-oxoisoindolin-2-yl)piperidine-2,6-dione]",0.49 nM
6,"O=C1CC[C@H](N2Cc3cc(N4CCN(CC5CCN(c6ccc([C@@H]7c8ccc(O)cc8C(F)(F)C[C@@H]7c7ccccc7)c(F)c6)CC5)CC4)ccc3C2=O)C(=O)N1 [Compound I-199, (S)-3-(5-(4-((1-(4-((1S,2S)-4,4-difluoro-6-hydroxy-2-phenyl-1,2,3,4-tetrahydronaphthalen-1-yl)-3-fluorophenyl)piperidin-4-yl)methyl)piperazin-1-yl)-1-oxoisoindolin-2-yl)piperidine-2,6-dione]",0.33 nM
7,"CC(C)C[C@@H]1CC(F)(F)c2cc(O)ccc2[C@@H]1c1ccc(N2CCC(CN3CCN(c4ccc5c(c4)CN([C@H]4CCC(=O)NC4=O)C5=O)CC3)CC2)cc1 [Compound I-220, (S)-3-(5-(4-((1-(4-((1S,2R)-4,4-difluoro-6-hydroxy-2-isobutyl-1,2,3,4-tetrahydronaphthalen-1-yl)phenyl)piperidin-4-yl)methyl)piperazin-1-yl)-1-oxoisoindolin-2-yl)piperidine-2,6-dione]",14 nM
8,"O=C1CC[C@H](N2Cc3cc(N4CCN(CC5CCN(c6ccc([C@H]7c8ccc(O)cc8C(F)(F)C[C@H]7CC7CCCC7)cc6)CC5)CC4)ccc3C2=O)C(=O)N1 [Compound I-229, (3S)-3-[5-[4-[[1-[4-[(1S,2R)-2-(cyclopentylmethyl)-4,4-difluoro-6-hydroxy-tetralin-1-yl]phenyl]-4-piperidyl]methyl]piperazin-1-yl]-1-oxo-isoindolin-2-yl]piperidine-2,6-dione]",≥ 10000 nM
9,"O=C1CC[C@H](N2Cc3cc(N4CCN(CC5CCN(c6ccc([C@H]7c8ccc(O)cc8C(F)(F)C[C@H]7C7CCCC7)cc6)CC5)CC4)ccc3C2=O)C(=O)N1 [Compound I-234, (S)-3-(5-(4-((1-(4-((1S,2S)-2-cyclopentyl-4,4-difluoro-6-hydroxy-1,2,3,4-tetrahydronaphthalen-1-yl)phenyl)piperidin-4-yl)methyl)piperazin-1-yl)-1-oxoisoindolin-2-yl)piperidine-2,6-dione]",959 nM

# Results, then the compound that gave them:
row,DC50,SMILES
1,0.4 nM,"Cn1c(=O)n(C2CCC(=O)NC2=O)c2ccc(N3CCN(CC4CCN(c5ccc([C@@H]6c7ccc(O)cc7CC[C@@H]6c6ccccc6)cc5)CC4)CC3)cc21 (stereo partly drawn) [Compound I-190, 3-(5-(4-((1-(4-((1R,2S)-6-hydroxy-2-phenyl-1,2,3,4-tetrahydronaphthalen-1-yl)phenyl)piperidin-4-yl)methyl)piperazin-1-yl)-3-methyl-2-oxo-2,3-dihydro-1H-benzo[d]imidazol-1-yl)piperidine-2,6-dione]"
2,2 nM,"O=C1CC[C@H](N2Cc3cc(N4CCN(CC5CCN(c6ccc([C@@H]7c8ccc(O)cc8C(F)(F)C[C@@H]7CC7CCCC7)cc6)CC5)CC4)ccc3C2=O)C(=O)N1 [Compound I-196, (3S)-3-[5-[4-[[1-[4-[(1R,2S)-2-(cyclopentylmethyl)-4,4-difluoro-6-hydroxy-tetralin-1-yl]phenyl]-4-piperidyl]methyl]piperazin-1-yl]-1-oxo-isoindolin-2-yl]piperidine-2,6-dione]"
3,0.93 nM,"O=C1CC[C@H](N2Cc3cc(N4CCN(CC5CCN(c6ccc([C@@H]7c8ccc(O)cc8C(F)(F)C[C@@H]7C7CCCC7)cc6)CC5)CC4)ccc3C2=O)C(=O)N1 [Compound I-198, (S)-3-(5-(4-((1-(4-((1R,2R)-2-cyclopentyl-4,4-difluoro-6-hydroxy-1,2,3,4-tetrahydronaphthalen-1-yl)phenyl)piperidin-4-yl)methyl)piperazin-1-yl)-1-oxoisoindolin-2-yl)piperidine-2,6-dione]"
4,0.3 nM,"O=C1CC[C@H](N2Cc3cc(N4CCN(CC5CCN(c6ccc([C@@H]7c8ccc(O)cc8C(F)(F)C[C@@H]7c7ccccc7)cn6)CC5)CC4)ccc3C2=O)C(=O)N1 [Compound I-202, (3S)-3-[5-[4-[[1-[5-[(1S,2S)-4,4-difluoro-6-hydroxy-2-phenyl-tetralin-1-yl]-2-pyridyl]-4-piperidyl]methyl]piperazin-1-yl]-1-oxo-isoindolin-2-yl]piperidine-2,6-dione]"
5,0.23 nM,"O=C1CC[C@H](N2Cc3cc(N4CCN(CC5CCN(c6ccc([C@@H]7c8ccc(O)cc8C(F)(F)C[C@@H]7c7ccccc7)nc6)CC5)CC4)ccc3C2=O)C(=O)N1 [Compound I-203, (S)-3-(5-(4-((1-(6-((1S,2S)-4,4-difluoro-6-hydroxy-2-phenyl-1,2,3,4-tetrahydronaphthalen-1-yl)pyridin-3-yl)piperidin-4-yl)methyl)piperazin-1-yl)-1-oxoisoindolin-2-yl)piperidine-2,6-dione]"
6,2 nM,"CC(C)(O)[C@H]1CCc2cc(O)ccc2[C@H]1c1ccc(N2CCC(CN3CCN(c4ccc5c(c4)CN([C@H]4CCC(=O)NC4=O)C5=O)CC3)CC2)cc1 [Compound I-204, (S)-3-(5-(4-((1-(4-((1R,2S)-6-hydroxy-2-(2-hydroxypropan-2-yl)-1,2,3,4-tetrahydronaphthalen-1-yl)phenyl)piperidin-4-yl)methyl)piperazin-1-yl)-1-oxoisoindolin-2-yl)piperidine-2,6-dione]"
7,≥ 10000 nM,"CC(C)(O)[C@@H]1CCc2cc(O)ccc2[C@@H]1c1ccc(N2CCC(CN3CCN(c4ccc5c(c4)CN([C@H]4CCC(=O)NC4=O)C5=O)CC3)CC2)cc1 [Compound I-219, (S)-3-(5-(4-((1-(4-((1S,2R)-6-hydroxy-2-(2-hydroxypropan-2-yl)-1,2,3,4-tetrahydronaphthalen-1-yl)phenyl)piperidin-4-yl)methyl)piperazin-1-yl)-1-oxoisoindolin-2-yl)piperidine-2,6-dione]"
8,72 nM,"O=C1CC[C@H](N2Cc3cc(N4CCN(CC5CCN(c6ccc([C@H]7c8ccc(O)cc8CC[C@H]7C7CCCCC7)cc6F)CC5)CC4)ccc3C2=O)C(=O)N1 [Compound I-236, (S)-3-(5-(4-((1-(4-((1S,2S)-2-cyclohexyl-6-hydroxy-1,2,3,4-tetrahydronaphthalen-1-yl)-2-fluorophenyl)piperidin-4-yl)methyl)piperazin-1-yl)-1-oxoisoindolin-2-yl)piperidine-2,6-dione]"
9,≥ 10000 nM,"C[C@@]1(C2CCCCC2)CCc2cc(O)ccc2[C@@H]1c1ccc(N2CCC(CN3CCN(c4ccc5c(c4)CN([C@H]4CCC(=O)NC4=O)C5=O)CC3)CC2)cc1 [Compound I-237, (S)-3-(5-(4-((1-(4-((1S,2S)-2-cyclohexyl-6-hydroxy-2-methyl-1,2,3,4-tetrahydronaphthalen-1-yl)phenyl)piperidin-4-yl)methyl)piperazin-1-yl)-1-oxoisoindolin-2-yl)piperidine-2,6-dione]"
